For test [1], the system named is Beet Armyworm (Spodoptera exigua, LAPHEG). Description: Bioassays on Beet Armyworm (BAW), 128-well diet tray assay. In kind it is in vivo. Particulars: Spodoptera exigua. The essentials:
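Larvae at second instar are exposed on dried, compound-treated diet (50 μg/cm^2, delivered in 90:10 acetone-water) in eight replicate wells. After five to seven days at 25° C., 14:10 light-dark, percent mortality in each well is scored and the eight wells averaged.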

The subject of test [2] is Cabbage Looper (Trichoplusia ni, TRIPNI). The test is described as follows: Bioassays on Cabbage Looper (CL), 128-well diet tray assay. Particulars: Trichoplusia ni. The test is classed as in vivo. Summed up:
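Diet tray, 2nd instar, 1–5 larvae/well; 50 μg/cm^2 compound surface-applied (acetone:water 90:10), dried; 8 wells/treatment; 25° C, 14:10 L:D, 5–7 d; % mortality, mean of 8 wells.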

The mark [3] stands for this setting: Table ABC: Biological Results, species BAW, read-out: BAW.
Where [4] appears, read: Table ABC: Biological Results, species CL, read-out: CL.
Setting [5] is: Beet Armyworm, Table ABC / ABC-DP rating, read-out: BAW rating.
Where [6] appears, read: Cabbage Looper, Table ABC / ABC-DP rating, read-out: CL rating.
The mark [7] stands for this setting: Beet Armyworm, rating class, read-out: BAW.
[8] abbreviates: Cabbage Looper, rating class, read-out: CL.

Like-named read-outs stand apart in the source and are kept apart here.

For the molecule `O=C(Nc1ccc(F)cc1NC(=O)C(F)F)c1cc(NC(=O)[C@H]2[C@H](c3ccc(Cl)c(Cl)c3)C2(Cl)Cl)ccc1Cl` (relative stereo) [F1123, trans-2-Chloro-5-(2,2-dichloro-3-(3,4-dichlorophenyl)cyclopropane-1-carboxamido)-N-(2-(2,2-difluoroacetamido)-4-fluorophenyl)benzamide], the pest or weed control at 50 µg/cm2 in test [1] (setting [3]) and in test [2] (setting [4]) was 50 to 100% each time.

Turning to `CC(=O)Nc1c(F)ccc(NC(=O)c2cc(NC(=O)[C@H]3[C@H](c4ccc(F)c(C(F)(F)F)c4)C3(Cl)Cl)ccc2Cl)c1F` [F1231, N-(3-Acetamido-2,4-difluorophenyl)-2-chloro-5-((1R,3R)-2,2-dichloro-3-(4-fluoro-3-(trifluoromethyl)phenyl)cyclopropane-1-carboxamido)benzamide], the pest or weed control at 50 µg/cm2 in test [1] (setting [3]) and in test [2] (setting [4]) was 50 to 100% in each case.

For `O=C(Nc1ccc(F)cc1F)c1c(F)ccc(NC(=O)[C@H]2[C@H](c3ccc(F)c(Cl)c3)C2(Cl)Cl)c1F` (relative stereo) [F1086, trans-3-(2,2-Dichloro-3-(3-chloro-4-fluorophenyl)cyclopropane-1-carboxamido)-N-(2,4-difluorophenyl)-2,6-difluorobenzamide], the pest or weed control at 50 µg/cm2 in test [1] (setting [3]) and in test [2] (setting [4]) was 50 to 100% throughout.

As for `O=C(NCC(F)(F)F)c1cc(NC(=O)[C@H]2[C@H](c3ccc(F)c(Cl)c3)C2(Cl)Cl)cc(Cl)c1F` (relative stereo) [F2045, trans-3-Chloro-5-(2,2-dichloro-3-(3-chloro-4-fluorophenyl)cyclopropane-1-carboxamido)-2-fluoro-N-(2,2,2-trifluoroethyl)benzamide], the pest or weed control at 50 µg/cm2 in test [1] (setting [5]) and in test [2] (setting [6]) was 50 to 100% in each case.

For the molecule `C=C(F)C(=O)Nc1c(F)ccc(NC(=O)c2cc(NC(=O)[C@H]3[C@H](c4cc(Cl)c(Cl)c(Cl)c4)C3(Cl)Cl)ccc2Cl)c1F` [F1872, 2-Chloro-5-((1R,3R)-2,2-dichloro-3-(3,4,5-trichlorophenyl)cyclopropane-1-carboxamido)-N-(2,4-difluoro-3-(2-fluoroacrylamido)phenyl)benzamide], the pest or weed control at 50 µg/cm2 in test [1] (setting [5]) and in test [2] (setting [6]) was 50 to 100% throughout.

Consider `CC(C)(C)OC(=O)N(C(=O)OC(C)(C)C)c1c(F)ccc(NC(=O)c2cc(NC(=O)[C@H]3[C@H](c4cccc(C(F)(F)F)c4)C3(Cl)Cl)ccc2Cl)c1F` [F1665, tert-Butyl N-tert-butoxycarbonyl-N-[3-[[2-chloro-5-[[(1R,3R)-2,2-dichloro-3-[3-(trifluoromethyl)phenyl]cyclopropanecarbonyl]amino]benzoyl]amino]-2,6-difluoro-phenyl]carbamate], for which the pest or weed control at 50 µg/cm2 in test [1] (setting [7]) and in test [2] (setting [8]) was 50 to 100% in each case.

For `Nc1c(F)ccc(NC(=O)c2cc(NC(=O)[C@H]3[C@H](c4ccc(F)c(Cl)c4)C3(Cl)Cl)cc(C(F)(F)F)c2Cl)c1F` (relative stereo) [F1225, trans-N-(3-Amino-2,4-difluorophenyl)-2-chloro-5-(2,2-dichloro-3-(3-chloro-4-fluorophenyl)cyclopropane-1-carboxamido)-3-(trifluoromethyl)benzamide], the pest or weed control at 50 µg/cm2 in test [1] (setting [3]) and in test [2] (setting [4]) was 50 to 100% in each case.

In the case of `Cc1cc(NC(=O)[C@H]2[C@H](c3ccc(F)c(C(F)(F)F)c3)C2(Cl)Cl)cc(C(=O)Nc2ccc(F)c(NC(=O)C(F)(F)F)c2F)c1Cl` [F1495, 2-Chloro-5-((1R,3R)-2,2-dichloro-3-(4-fluoro-3-(trifluoromethyl)phenyl)cyclopropane-1-carboxamido)-N-(2,4-difluoro-3-(2,2,2-trifluoroacetamido)phenyl)-3-methylbenzamide], the pest or weed control at 50 µg/cm2 in test [1] (setting [7]) and in test [2] (setting [8]) was 50 to 100% throughout.

For the molecule `CN(NC(=O)c1cc(NC(=O)[C@H]2[C@H](c3cc(Cl)cc(Cl)c3)C2(Cl)Cl)ccc1Cl)C(=O)C1CC1(F)F` (relative stereo) [F2534, trans-2,2-Dichloro-N-(4-chloro-3-(2-(2,2-difluorocyclopropane-1-carbonyl)-2-methylhydrazine-1-carbonyl)phenyl)-3-(3,5-dichlorophenyl)cyclopropane-1-carboxamide], the pest or weed control at 50 µg/cm2 in test [1] (setting [5]) and in test [2] (setting [6]) was 50 to 100% throughout.

Regarding `Nc1c(F)ccc(NC(=O)c2cc(NC(=O)[C@H]3[C@H](c4cc(F)cc(Br)c4F)C3(Cl)Cl)ccc2Cl)c1F` (relative stereo) [F1098, trans-N-(3-Amino-2,4-difluorophenyl)-5-(3-(3-bromo-2,5-difluorophenyl)-2,2-dichlorocyclopropane-1-carboxamido)-2-chlorobenzamide], the pest or weed control at 50 µg/cm2 in test [1] (setting [3]) and in test [2] (setting [4]) was 50 to 100% each time.

Turning to `Cc1cc(NC(=O)[C@H]2[C@H](c3ccc(Cl)c(Cl)c3)C2(Cl)Cl)cc(C(=O)Nc2c(F)ccc(NC(=O)C(F)F)c2F)c1Cl` [F1429, 2-Chloro-5-((1R,3R)-2,2-dichloro-3-(3,4-dichlorophenyl)cyclopropane-1-carboxamido)-N-(3-(2,2-difluoroacetamido)-2,6-difluorophenyl)-3-methylbenzamide], the pest or weed control at 50 µg/cm2 in test [1] (setting [7]) and in test [2] (setting [8]) was 50 to 100% each time.

In the case of `O=C(Nc1ccc(F)c(NC(=O)C(F)(F)C(F)(F)C(F)(F)F)c1F)c1cc(NC(=O)[C@H]2[C@H](c3ccc(F)c(Cl)c3)C2(Cl)Cl)ccc1Cl` [F1741, 2-Chloro-5-((1R,3R)-2,2-dichloro-3-(3-chloro-4-fluorophenyl)cyclopropane-1-carboxamido)-N-(2,4-difluoro-3-(2,2,3,3,4,4,4-heptafluorobutanamido)phenyl)benzamide], the pest or weed control at 50 µg/cm2 in test [1] (setting [7]) and in test [2] (setting [8]) was 50 to 100% in each case.

`O=C(NNc1ccc(Cl)c(C(F)(F)F)c1)c1cc(NC(=O)[C@H]2[C@H](c3cc(Cl)cc(Cl)c3)C2(Cl)Cl)ccc1Cl` (relative stereo) [F2501, trans-2,2-dichloro-N-(4-chloro-3-(2-(4-chloro-3-(trifluoromethyl)phenyl)hydrazine-1-carbonyl)phenyl)-3-(3,5-dichlorophenyl)cyclopropane-1-carboxamide]: the pest or weed control at 50 µg/cm2 in test [1] (setting [5]) and in test [2] (setting [6]) was 50 to 100% throughout.

As to `O=C(Nc1ccc(F)cc1)c1cc(NC(=O)[C@H]2[C@H](c3ccc(F)c(Cl)c3)C2(Cl)Cl)cc(Cl)c1F` (relative stereo) [F1195, trans-3-Chloro-5-(2,2-dichloro-3-(3-chloro-4-fluorophenyl)cyclopropane-1-carboxamido)-2-fluoro-N-(4-fluorophenyl)benzamide], the pest or weed control at 50 µg/cm2 in test [1] (setting [3]) and in test [2] (setting [4]) was 50 to 100% throughout.

With `CC(C)NC(=S)NNC(=O)c1cc(NC(=O)[C@H]2[C@H](c3cc(Cl)cc(Cl)c3)C2(Cl)Cl)ccc1Cl` (relative stereo) [F2540, trans-2,2-Dichloro-N-(4-chloro-3-(2-(isopropylcarbamothioyl)hydrazine-1-carbonyl)phenyl)-3-(3,5-dichlorophenyl)cyclopropane-1-carboxamide], the pest or weed control at 50 µg/cm2 in test [1] (setting [5]) and in test [2] (setting [6]) was 50 to 100% in each case.

Turning to `CC(C)(C)OC(=O)N(C(=O)OC(C)(C)C)c1c(F)ccc(NC(=O)c2c(F)ccc(NC(=O)[C@H]3[C@H](c4ccc(F)c(Cl)c4)C3(Cl)Cl)c2F)c1F` (relative stereo) [F1109, trans-tert-Butyl-N-tert-butoxycarbonyl-N-[3-[[3-[[2,2-dichloro-3-(3-chloro-4-fluorophenyl)cyclopropanecarbonyl]amino]-2,6-difluorobenzoyl]amino]-2,6-difluorophenyl]carbamate], the pest or weed control at 50 µg/cm2 in test [1] (setting [3]) and in test [2] (setting [4]) was 50 to 100% in each case.

`COCC(=O)NNC(=O)c1cc(NC(=O)[C@H]2[C@H](c3cc(Cl)cc(Cl)c3)C2(Cl)Cl)ccc1Cl` (relative stereo) [F2529, trans-2,2-Dichloro-N-(4-chloro-3-(2-(2-methoxyacetyl)hydrazine-1-carbonyl)phenyl)-3-(3,5-dichlorophenyl)cyclopropane-1-carboxamide]: the pest or weed control at 50 µg/cm2 in test [1] (setting [5]) and in test [2] (setting [6]) was 50 to 100% each time.

As to `Cc1cc(NCCO)ccc1NC(=O)c1cc(NC(=O)[C@H]2[C@H](c3ccc(F)c(C(F)(F)F)c3)C2(Cl)Cl)ccc1Cl` [F1145, 2-Chloro-5-((1R,3R)-2,2-dichloro-3-(4-fluoro-3-(trifluoromethyl)phenyl)cyclopropane-1-carboxamido)-N-(4-((2-hydroxyethyl)amino)-2-methylphenyl)benzamide], the pest or weed control at 50 µg/cm2 in test [1] (setting [3]) and in test [2] (setting [4]) was 50 to 100% each time.

In the case of `CC(=O)Nc1c(F)cc(F)cc1NC(=O)c1cc(NC(=O)[C@H]2[C@H](c3cc(Cl)cc(Cl)c3)C2(Cl)Cl)ccc1Cl` (relative stereo) [F1632, trans-N-(2-Acetamido-3,5-difluorophenyl)-2-chloro-5-(2,2-dichloro-3-(3,5-dichlorophenyl)cyclopropane-1-carboxamido)benzamide], the pest or weed control at 50 µg/cm2 in test [1] (setting [7]) and in test [2] (setting [8]) was 50 to 100% in each case.

As for `O=C(Nc1c(F)ccc(NC(=O)C(F)(F)F)c1F)c1cc(NC(=O)[C@H]2[C@H](c3cc(Cl)c(Cl)c(Cl)c3)C2(Cl)Cl)cc(F)c1F` [F1588, 5-((1R,3R)-2,2-Dichloro-3-(3,4,5-trichlorophenyl)cyclopropane-1-carboxamido)-N-(2,6-difluoro-3-(2,2,2-trifluoroacetamido)phenyl)-2,3-difluorobenzamide], the pest or weed control at 50 µg/cm2 in test [1] (setting [7]) and in test [2] (setting [8]) was 50 to 100% each time.

These data come from patent US20250228239A1, “MOLECULES HAVING PESTICIDAL UTILITY, AND INTERMEDIATES, COMPOSITIONS, AND PROCESSES, RELATED THERETO” (priority 2024, published 2025).
